Experimental findings from the METLIN SMRT retention time set (Domingo-Almenara et al. 2019) are described below.

This series in a line: gradient 5% acetonitrile 3 min, to 50% in 2 min, to 85% in 15 min, held 3 min, 100 µL/min. Particulars: column: Zorbax Extend-C18 2.1 x 50 mm; eluents: water / acetonitrile, 0.1% formic acid. In short, it runs like this:
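The system's dead and dwell volumes were 40 μL and 900 μL, with a Zorbax Extend-C18 column (2.1 × 50 mm, 1.8 μm) run at 100 μL/min in water and acetonitrile containing 0.1% formic acid each. Pure standards were analyzed in mixtures of ~100 molecules by HPLC–quadrupole time-of-flight mass spectrometry in positive and negative ionization mode. Retention time was assigned from computationally picked, manually inspected adduct peaks.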
`CS(=O)(=O)N1CCCN(C(=O)Nc2ccccc2)CC1` yielded an RP-LC retention time of 649 s.
Consider `CCC1(C(=O)NCCCN2CCc3ccccc3C2)CCCCC(=O)N1` (stereo unspecified), for which the RP-LC retention time turned out to be 582 s.
The value for `CC(C)n1nc(-c2ccc3oc(N)nc3c2)c2c(N)ncnc21` was 628 s.
The value for `c1cnc2c(c1)ccc1ncccc12` was 674 s; that for `COc1cc(=O)n(-c2ccccc2)nc1C(=O)N1c2ccc(F)cc2CCC1C` (stereo unspecified) was 866 s.
The value for `CCC(=O)Nc1ccc(CCc2nc3ccc(C(=O)NC4CCCCC4)cc3[nH]2)cc1` was 647 s; that for `Cc1sc2ccn(C)c(=O)c2c1C(=O)NCc1ccc(N2CCOCC2)cc1` was 647 s; that for `CS(=O)(=O)c1ccc2nc(NC(=O)c3ccc([N+](=O)[O-])o3)sc2c1` was 679 s.
On to `CCCn1ccc2sc(C)c(C(=O)NCc3ccccc3Cl)c2c1=O`, for which the RP-LC retention time was 980 s.
The value for `COC(=O)c1cc(C(=O)OC)cc(-n2ccc3nc(C)c(C(=O)OC)cc3c2=O)c1` was 844 s.
The value for `CO[C@H]1C(=O)N(C(C)C)[C@H]1C1CCN(C(=O)c2sc(C)nc2C)CC1` was 650 s.
The same measure for `Cc1cccc(-c2ncccc2CNS(=O)(=O)Cc2cccc(F)c2)c1`: 774 s; for `O=C(NC1CC1)C1c2ccccc2CC(=O)N1Cc1ccccc1` (stereo unspecified): 750 s.
In turn, `CC(C)NP(=O)(NC(C)C)OP(=O)(NC(C)C)NC(C)C` had an RP-LC retention time of 762 s.
With `COc1ccc(OC)c(NC(=O)C2C(=O)NC3(C)CC2c2ccccc2O3)c1` (stereo unspecified), the RP-LC retention time stood at 875 s.
The same measure for `COc1ccc(C(=O)N2CCc3cc(-c4csc(C)n4)ccc32)c(OC)c1`: 965 s; for `O=C(NCC1CCCO1)c1cn(-c2ccc(S(=O)(=O)N3CCCC3)cn2)cn1` (stereo unspecified): 705 s.
The same measure for `CCc1noc(-c2ccnc(-n3cnc(C(=O)NC(C)C)c3)c2)n1`: 784 s.
The same measure for `O=C(O)Cn1nnc(-c2cc(N3CCC(Oc4cc(F)ccc4Br)CC3)no2)n1`: 1000 s; for `COc1ccc(Cl)cc1NC(=O)C1(c2cccs2)CCCC1`: 1280 s; for `Cc1ccc(-c2cn3c(CC(=O)NCc4cccs4)csc3n2)cc1C`: 799 s.
Consider `CCCc1cc(N2CCN(C(=O)C3CCC3)CC2)nc2nnc(C)n12`, for which the RP-LC retention time is 614 s.
The value for `COc1ccc(-c2ncc3c(n2)CCN(C(=O)c2ccc(Cl)cc2)C3)cc1` was 969 s; that for `CN(C)[C@@H]1CN(Cc2cccc(OC(F)(F)F)c2)CC[C@@H]1CO` was 585 s; that for `COc1ccc(N2C=C(C(=O)N3CCCC3)S(=O)(=O)c3ccccc32)cc1OC` was 726 s.
As for `COc1ncccc1C(=O)NCc1nnc(C)o1`, the RP-LC retention time stood at 579 s.
The same measure for `Cc1noc(C)c1CCC(=O)Nc1nnc(-c2ccsc2)o1`: 628 s; for `CSc1ccc(CNC(=O)c2cn3ccccc3n2)cc1`: 692 s; for `CC(C)Cn1cc(CCNC(=O)c2ccc(F)c(Cl)c2)c2cccnc21`: 909 s.
The value for `O=c1c2cc3c(cc2nc(SCc2nc(-c4ccc(F)cc4)no2)n1CC1CCCO1)OCO3` (stereo unspecified) was 1130 s.
Compound `Cc1ccc2nc(N3CCN(C)CC3)c(-c3noc(-c4ccccc4)n3)cc2c1` showed an RP-LC retention time of 715 s.
The same measure for `CCCOc1ccc(CNC(=O)C2CCN(c3ncnc4c3oc3ccccc34)CC2)cc1`: 841 s; for `O=C(c1cnccn1)N1CCN(c2ccc(-n3cccn3)nn2)CC1`: 580 s; for `O=C(Cn1c(=O)n(-c2ccccc2)c2ncccc21)N1CCN(c2ccccn2)CC1`: 596 s.
The same measure for `CC(C)NC(=O)c1ccc(Cn2c(SCC#N)nc3cc4c(cc3c2=O)OCO4)cc1`: 759 s.
The value for `COc1ccc(-n2cc(C(=O)O)nn2)cc1OC` was 638 s.
As to `O=C(Nc1ccc(Cl)cc1)c1cc2c(cc1O)[nH]c1ccccc12`, the RP-LC retention time came out at 1210 s.
For the compound `COc1ccc(CNc2nc(-c3ccccc3)nnc2C)cc1`, the RP-LC retention time was 683 s.
The same measure for `COc1ccc(-c2ncc3c(n2)CCN(C(=O)Nc2ccccc2Br)C3)cc1`: 961 s.
The value for `CCOC(=O)c1c(C)oc2nc(C)nc(NCC3CCN(Cc4ccccc4F)CC3)c12` was 702 s; that for `CCCN(C(=O)CC(=O)OC)c1nc(-c2ccc(Br)cc2)cs1` was 1240 s.
The same measure for `CCCc1cc(C2CCCN2C(=O)Nc2ccc(C)cc2)no1` (stereo unspecified): 946 s.
On to `Cc1cc(C)cc(N2CCC(NC(=O)Nc3ccc(C)cc3C)C2=O)c1` (stereo unspecified), for which the RP-LC retention time came to 938 s.
The compound `Cc1ccc(-c2nc3nc4c(c(N5CCCC5)n3n2)CCC4)cc1` had an RP-LC retention time of 909 s.
The same measure for `COc1ccc(OC)c(S(=O)(=O)NCC(O)Cc2ccccc2)c1` (stereo unspecified): 736 s.
The value for `O=C(NC1CCCCC1)N1CCN(c2ccc3nnc(C4CC4)n3n2)CC1` was 645 s; that for `COc1ccc(C(=O)Nc2nc(-c3ccccc3)cs2)cc1OC` was 961 s; that for `CC(=O)Nc1ccc2c(c1)CN(C(=O)c1c(F)cccc1F)C(C(=O)N1CCCC1)C2` (stereo unspecified) was 873 s.
The value for `O=C(C1CCN(c2nnc3ccccn23)CC1)N1CCN(c2ccccn2)CC1` was 543 s; that for `O=C(C1=CN(c2cccc(Cl)c2)c2cc(F)ccc2S1(=O)=O)N1CCOCC1` was 811 s; that for `Cc1cc(NC(=O)C2CCc3nc(N4CCOCC4)ncc3C2)ccc1Cl` (stereo unspecified) was 897 s.
In turn, `CCn1cc(C(=O)N[C@@H](Cc2ccccc2)C(=O)O)c(=O)c2cc3c(cc21)OCO3` gave an RP-LC retention time of 728 s.
The same measure for `Cc1nnc(NC(=O)c2ccccc2OCc2nc(-c3ccccc3)no2)s1`: 953 s; for `CCS(=O)(=O)N1CCCN(C2=NS(=O)(=O)C(c3ccc(C)c(C)c3)=C2C)CC1`: 872 s.
The same measure for `CSC[C@H]1O[C@@H](n2cnc3c(N)ncnc32)[C@@H](O)[C@H]1O`: 575 s.
The value for `COc1ccc(Cl)cc1S(=O)(=O)N1CCCC(C(=O)NCc2ccccn2)C1` (stereo unspecified) was 660 s; that for `Cn1c(=O)c2c(ncn2CC(=O)Nc2cccc(N3CCCS3(=O)=O)c2)n(C)c1=O` was 595 s; that for `CCOC(=O)Nc1ccc2c(c1)N(CCC(C)C)C(=O)C(C)(C)CO2` was 1070 s.
In turn, `CN(C)C(=O)OC1=C(c2ccccc2)Sc2ccccc2-n2cccc21` displayed an RP-LC retention time of 1250 s.
Compound `CSc1ccc(N2C(C)=NS(=O)(=O)c3cccnc32)cc1` registered an RP-LC retention time of 811 s.
The value for `CC(C)CCNC(=O)c1ccc2ncnc(N3CCCC3)c2c1` was 635 s; that for `O=C(Nc1cccnc1)c1ccccc1OCc1ccc(S(=O)(=O)N2CCOCC2)o1` was 594 s; that for `O=c1[nH]cc(S(=O)(=O)N2CCCCCC2)c(=O)[nH]1` was 650 s.
The same measure for `CC(=O)N1c2ccc(S(=O)(=O)N3CCCCC3)cc2CC1C(=O)NC1CCCC1` (stereo unspecified): 830 s; for `CCOC(=O)c1cccc(NC(=O)Nc2cccc(-c3ccc(N4CCOCC4)nn3)c2)c1`: 742 s.
The value for `CCN(CC)S(=O)(=O)c1cccc(-c2nc(-c3ccc(C)cc3)no2)c1` was 1320 s; that for `CC(Oc1ccccc1F)C(=O)Nc1ccc(-c2nc(-c3ccc(F)cc3)no2)cc1` (stereo unspecified) was 1260 s.
Consider `Cc1cccc(NC(=O)N2CCc3nc(C)ncc3C2)c1`, for which the RP-LC retention time stood at 656 s.
The value for `NC(=O)C1CCN(c2ncnc3c2oc2ccccc23)CC1` was 584 s; that for `Cc1oc(-c2[nH]ncc2C(=O)N(C)C)cc1S(=O)(=O)Nc1cc(F)cc(F)c1` was 890 s.
The same measure for `CCOc1ccc(Nc2c(-c3ccc(N(C)C)cc3)nc3cnccn23)cc1`: 813 s.
Compound `O=C(O)Cc1sc(Nc2ccc(Br)cc2)nc1-c1ccccc1` had an RP-LC retention time of 1020 s.
`O=C(COc1ccc(Cl)cc1Cl)NC1CC(=O)N(C2CC2)C1` (stereo unspecified) registered an RP-LC retention time of 701 s.
The same measure for `Cc1nc(-c2ccc(N3CCN(C(=O)c4nn(C)c5ccccc45)CC3)nc2)sc1C`: 966 s.
The value for `COc1ccc(S(=O)(=O)N2C[C@@H]3C[C@H]2C[C@@H]3NC(=O)c2cccs2)cc1Cl` was 792 s; that for `CCN(C(=O)C1CCCN(c2ncnc3c2nc2n3CCCCC2)C1)c1ccccc1` (stereo unspecified) was 838 s; that for `Cc1nc(C)c(C(=O)Nc2ccc(C)c(F)c2)s1` was 860 s.
The same measure for `COc1ccc(Cc2nnc(C3CCN(C(=O)Cc4cccs4)CC3)s2)cc1`: 745 s; for `CSc1ccc(-c2nc3cnccn3c2Nc2cccc(C(=O)N3CCOCC3)c2)cc1`: 704 s; for `CCOc1ccc(C(=O)N2CCC3(CC2)NC(=O)c2cc(Cl)ccc2N3C)cc1`: 853 s.
In turn, `COc1ccc(-c2n[nH]c3c2C(c2cccnc2)N(c2ccc(Br)cc2)C3=O)cc1` (stereo unspecified) gave an RP-LC retention time of 768 s.
